Source: US20260274804A1, “PHENOLIC COMPOUNDS BLOCKING Nav 1.7 AND/OR Nav 1.8, PROCESSES FOR THE PREPARATION THEREOF, COMPOSITIONS, USES, METHODS OF TREATMENT USING SAME AND KITS” (Eurofarma Laboratórios S.A., priority 2023, published 2026)

What was measured:
[1] = molecular target: T1, human sodium channels Nav 1.8 (Homo sapiens, UniProt Q9Y5Y9); assay: Automated whole-cell voltage-clamp (ScreenPatch 384P) on CHO cells stably expressing Nav 1.8; format: cell-based; conditions: inactivation step -40 mV 8 s, test pulse 10 mV, room temperature, exposure at least five minutes, read-out: Nav1.8 IC50
T1 construct: expressed in transfected cells
Description: (§1) Biological assays were performed on Chinese hamster ovary (CHO) cells that express human sodium channels Nav 1.8 or Nav 1.7 in a stable manner.
(§2) The experimental protocol voltage-clamp using the whole cell configuration was established on the automated ScreenPatch® 384P platform (SP384PE, Nanion Technologies, Livingston, NJ) and the results were recorded with a Nanion 384-well Patch Clamp chip (NPC) (Nanion Technologies, Livingston, NJ).
(§3) Formula I compounds were diluted in eight concentrations in the extracellular solution composed of physiological saline solution, buffered with HEPES (mM): NaCl, 137; KCl, 4; CaCl2, 3.8; MgCl2, 1; HEPES, 10; Glucose, 10; pH 7.4. The […], 50; CsF, 90; MgCl2, 5; EGTA, 5; HEPES, 10; pH 7.2. The duration of exposure of each compound with cells expressing Nav 1.7 or Nav 1.8 was at least five minutes, and the assays were performed at room temperature.
(§4) The measurements of the sodium currents of Nav 1.8 and Nav 1.7 were obtained using the voltage protocol described below.
(§5) A holding voltage of −100 mV was established followed by an inactivation voltage step at −40 mV for 8 seconds, followed by a step of −100 mV for 20 ms, followed by a 20 ms step for 10 mV for Nav 1.8 or 0 mV for Nav 1.7 (TP1A) before returning to the holding voltage of −100 mV.
(§6) The protocol was repeated at a frequency of 0.05 Hz and the amplitude of the current was quantified throughout the recording of the TP1A phase. The variation in the peak current amplitude was evaluated according to the Formula described below, after exposing the cells expressing the channels to each concentration of the different compounds:
(§7) [formula] • wherein […] and ITP1A,molecule represent the peaks of sodium current input into TP1A before exposure to the compound and in the presence of the compound, respectively.
(§8) The decrease in the peak current amplitude, after the exposure of the cells to the compounds, was used to calculate the percentage of relative blockage of the channels in relation to the positive control according to the Formula below:
(§9) [formula] • where % V and % CP represent the means of the values of current inhibition with a vehicle (DMSO) and positive controls, respectively. The sodium currents of the positive control were considered as 100%:
(§10) [formula] • wherein [Test] represents the concentration of the molecule evaluated, IC50 is the concentration of the compound that generates half of the maximum inhibition, N is Hill's coefficient, and % Blockage' is the percentage of sodium channel current (Nav 1.8 and Nav 1.7) inhibited at each concentration of the molecule evaluated. Data were obtained by nonlinear regression (nonlinear least squares) with XLfit for Excel (Microsoft, Redmond, WA).
(§11) The compounds were tested in at least one assay to obtain the value of CI50. For compounds that were tested in two or more assays, the results are described as the means of the CI50 values.

[2] = molecular target: T2, human sodium channels Nav 1.7 (Homo sapiens, UniProt Q15858); assay: Automated whole-cell voltage-clamp (ScreenPatch 384P) on CHO cells stably expressing Nav 1.7; format: cell-based; conditions: inactivation step -40 mV 8 s, test pulse 0 mV, room temperature, exposure at least five minutes, read-out: Nav1.7 IC50
T2 construct: expressed in transfected cells
Description: as §1, §2, §3, §4, §5, §6, §7, §8, §9, §10, §11

T2 sequence (Q15858 whole entry): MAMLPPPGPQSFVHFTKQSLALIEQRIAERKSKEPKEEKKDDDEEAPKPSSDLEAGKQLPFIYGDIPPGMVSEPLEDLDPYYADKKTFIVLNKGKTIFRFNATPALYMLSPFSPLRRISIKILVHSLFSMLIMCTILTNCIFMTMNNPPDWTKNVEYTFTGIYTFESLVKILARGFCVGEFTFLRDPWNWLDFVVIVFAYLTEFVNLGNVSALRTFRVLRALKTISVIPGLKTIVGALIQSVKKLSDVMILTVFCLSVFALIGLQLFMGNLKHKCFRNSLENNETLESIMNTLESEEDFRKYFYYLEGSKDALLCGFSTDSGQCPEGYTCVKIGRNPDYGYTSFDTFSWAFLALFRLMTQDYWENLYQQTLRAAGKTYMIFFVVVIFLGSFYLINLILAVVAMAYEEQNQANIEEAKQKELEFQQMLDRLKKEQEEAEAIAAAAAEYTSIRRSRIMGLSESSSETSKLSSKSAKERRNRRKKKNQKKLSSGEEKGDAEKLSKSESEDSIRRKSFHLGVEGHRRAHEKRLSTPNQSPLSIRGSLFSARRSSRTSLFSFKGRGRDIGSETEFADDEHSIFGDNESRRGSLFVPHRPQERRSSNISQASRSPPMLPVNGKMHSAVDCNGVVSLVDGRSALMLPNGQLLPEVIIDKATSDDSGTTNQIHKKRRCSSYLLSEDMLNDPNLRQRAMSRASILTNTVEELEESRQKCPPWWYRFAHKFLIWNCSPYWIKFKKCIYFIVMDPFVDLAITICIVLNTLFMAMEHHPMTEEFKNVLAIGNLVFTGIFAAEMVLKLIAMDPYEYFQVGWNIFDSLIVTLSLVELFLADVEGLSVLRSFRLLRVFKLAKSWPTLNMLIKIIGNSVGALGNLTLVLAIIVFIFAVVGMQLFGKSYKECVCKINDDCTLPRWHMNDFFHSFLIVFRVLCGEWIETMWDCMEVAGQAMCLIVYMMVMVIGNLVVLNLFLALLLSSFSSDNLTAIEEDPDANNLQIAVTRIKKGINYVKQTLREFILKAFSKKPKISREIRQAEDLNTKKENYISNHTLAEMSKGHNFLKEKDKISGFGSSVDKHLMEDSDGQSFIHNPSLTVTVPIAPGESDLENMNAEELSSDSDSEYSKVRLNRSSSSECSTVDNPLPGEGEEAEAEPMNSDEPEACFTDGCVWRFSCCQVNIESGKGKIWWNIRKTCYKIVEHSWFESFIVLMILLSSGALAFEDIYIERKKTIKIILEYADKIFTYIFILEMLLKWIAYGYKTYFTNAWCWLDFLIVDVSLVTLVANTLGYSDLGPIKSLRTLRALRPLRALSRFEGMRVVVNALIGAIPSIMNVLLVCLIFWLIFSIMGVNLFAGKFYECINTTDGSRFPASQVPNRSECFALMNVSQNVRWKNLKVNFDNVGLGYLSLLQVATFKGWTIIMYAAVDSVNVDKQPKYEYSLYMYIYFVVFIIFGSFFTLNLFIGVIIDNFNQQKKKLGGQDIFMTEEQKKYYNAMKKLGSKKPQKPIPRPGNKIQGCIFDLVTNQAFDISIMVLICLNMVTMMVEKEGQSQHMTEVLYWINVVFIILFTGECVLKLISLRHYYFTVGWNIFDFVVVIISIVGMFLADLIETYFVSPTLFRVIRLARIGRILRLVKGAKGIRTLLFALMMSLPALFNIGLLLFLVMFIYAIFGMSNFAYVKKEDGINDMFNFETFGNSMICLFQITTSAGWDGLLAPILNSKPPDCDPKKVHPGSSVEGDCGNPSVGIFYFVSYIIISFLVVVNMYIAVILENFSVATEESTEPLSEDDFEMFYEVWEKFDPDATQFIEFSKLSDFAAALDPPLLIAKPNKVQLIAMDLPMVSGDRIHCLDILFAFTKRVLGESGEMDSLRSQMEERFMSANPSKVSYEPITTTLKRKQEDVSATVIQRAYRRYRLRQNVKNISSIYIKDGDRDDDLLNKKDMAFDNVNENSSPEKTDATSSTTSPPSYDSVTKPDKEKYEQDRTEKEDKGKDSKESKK
T1 sequence (Q9Y5Y9 whole entry): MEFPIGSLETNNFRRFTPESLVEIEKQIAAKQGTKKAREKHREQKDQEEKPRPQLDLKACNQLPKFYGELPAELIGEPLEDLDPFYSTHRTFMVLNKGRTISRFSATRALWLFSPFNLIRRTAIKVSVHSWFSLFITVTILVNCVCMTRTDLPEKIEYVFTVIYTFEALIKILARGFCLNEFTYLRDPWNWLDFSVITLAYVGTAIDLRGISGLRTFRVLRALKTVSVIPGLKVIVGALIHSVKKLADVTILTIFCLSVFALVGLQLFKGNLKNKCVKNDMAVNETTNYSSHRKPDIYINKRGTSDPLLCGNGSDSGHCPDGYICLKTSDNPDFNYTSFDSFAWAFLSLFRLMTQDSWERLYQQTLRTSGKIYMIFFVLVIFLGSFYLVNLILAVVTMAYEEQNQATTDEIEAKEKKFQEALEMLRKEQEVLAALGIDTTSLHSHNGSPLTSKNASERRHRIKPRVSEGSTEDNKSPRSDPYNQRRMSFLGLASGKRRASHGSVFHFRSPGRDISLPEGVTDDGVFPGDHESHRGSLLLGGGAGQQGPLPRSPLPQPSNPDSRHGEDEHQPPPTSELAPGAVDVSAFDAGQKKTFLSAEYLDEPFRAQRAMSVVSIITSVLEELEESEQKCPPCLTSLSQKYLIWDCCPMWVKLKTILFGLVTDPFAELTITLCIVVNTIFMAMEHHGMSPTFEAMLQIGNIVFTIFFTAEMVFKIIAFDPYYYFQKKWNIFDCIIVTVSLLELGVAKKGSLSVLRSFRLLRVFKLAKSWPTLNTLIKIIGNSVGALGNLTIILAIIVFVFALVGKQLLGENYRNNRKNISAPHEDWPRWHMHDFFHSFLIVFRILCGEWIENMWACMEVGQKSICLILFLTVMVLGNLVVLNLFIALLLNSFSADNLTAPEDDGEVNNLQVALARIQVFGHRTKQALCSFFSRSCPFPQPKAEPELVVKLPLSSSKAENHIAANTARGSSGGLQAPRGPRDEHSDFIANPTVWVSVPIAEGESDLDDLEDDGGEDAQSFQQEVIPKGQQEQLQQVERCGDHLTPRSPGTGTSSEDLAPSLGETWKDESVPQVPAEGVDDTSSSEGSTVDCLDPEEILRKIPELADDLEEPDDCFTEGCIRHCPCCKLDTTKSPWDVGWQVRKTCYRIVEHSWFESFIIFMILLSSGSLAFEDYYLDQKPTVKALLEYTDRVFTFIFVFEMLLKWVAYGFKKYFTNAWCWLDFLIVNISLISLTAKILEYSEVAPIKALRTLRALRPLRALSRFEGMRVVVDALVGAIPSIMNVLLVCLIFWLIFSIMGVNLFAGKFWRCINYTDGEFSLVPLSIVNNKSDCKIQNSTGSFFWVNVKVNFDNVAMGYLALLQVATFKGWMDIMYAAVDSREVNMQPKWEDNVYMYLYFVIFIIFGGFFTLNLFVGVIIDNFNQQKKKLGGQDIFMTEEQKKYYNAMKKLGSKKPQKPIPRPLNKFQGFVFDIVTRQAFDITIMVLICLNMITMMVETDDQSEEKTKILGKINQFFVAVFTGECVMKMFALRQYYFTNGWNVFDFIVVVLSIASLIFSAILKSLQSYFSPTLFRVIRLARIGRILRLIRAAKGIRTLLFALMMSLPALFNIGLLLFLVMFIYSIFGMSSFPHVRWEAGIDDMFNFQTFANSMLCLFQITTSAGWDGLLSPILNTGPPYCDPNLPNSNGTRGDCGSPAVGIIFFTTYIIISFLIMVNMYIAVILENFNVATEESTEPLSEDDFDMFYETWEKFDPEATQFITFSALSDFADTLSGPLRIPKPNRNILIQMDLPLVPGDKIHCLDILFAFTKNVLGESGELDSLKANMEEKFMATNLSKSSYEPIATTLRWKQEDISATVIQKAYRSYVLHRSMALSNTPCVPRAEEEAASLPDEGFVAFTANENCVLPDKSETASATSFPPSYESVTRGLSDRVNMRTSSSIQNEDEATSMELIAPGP

Structure (SMILES)	IC50 [1] [µM]	IC50 [2] [µM]
COc1ccc(-c2cncc(C(=O)N/N=C/c3cc(C)cc(C)c3)n2)c(O)c1 [Compound 7, (E)-N′-(3,5-dimethylbenzylidene)-6-(2-hydroxy-4-methoxyphenyl)pyrazine-2-carbohydrazide]	< 0.5	> 1
COc1cc(/C=N/NC(=O)c2cncc(-c3ccc(OC)c(O)c3)n2)cc(OC)c1 [Compound 6, (E)-N′-(3,5-dimethoxybenzylidene)-6-(3-hydroxy-4-methoxyphenyl)pyrazine-2-carbohydrazide]	> 1	> 1
COc1ccc(-c2nc(C(=O)N/N=C/c3cc(C)cc(C)c3)cnc2O)cc1 [Compound 13, (E)-N′-(3,5-dimethylbenzylidene)-5-hydroxy-6-(4-methoxyphenyl)pyrazine-2-carbohydrazide]	> 1	> 1
CCOc1ccc(-c2nc(C(=O)N/N=C/c3cc(OC)cnc3F)cnc2O)cc1 [Compound 16, (E)-6-(4-ethoxyphenyl)-N′-((2-fluoro-5-methoxypyridine-3-yl)methylene)-5-hydroxypyrazine-2-carbohydrazide]	> 1	> 1
Cc1cc(C)cc(/C=N/NC(=O)c2cncc(-c3ccc(O)cc3)n2)c1 [Compound 2, (E)-N′-(3,5-dimethylbenzylidene)-6-(4-hydroxyphenyl)pyrazine-2-carbohydrazide]	> 1	> 1
COc1cc(/C=N/NC(=O)c2cncc(-c3ccc(OC)cc3O)n2)cc(OC)c1 [Compound 5, (E)-N′-(3,5-dimethoxybenzylidene)-6-(2-hydroxy-4-methoxyphenyl)pyrazine-2-carbohydrazide]	< 0.5	> 1
COc1ccc(F)c(/C=N/NC(=O)c2cncc(-c3ccc(O)cc3)n2)c1 [Compound 3, (E)-N′-(2-fluoro-5-methoxybenzylidene)-6-(4-hydroxyphenyl)pyrazine-2-carbohydrazide]	> 1	> 1
COc1ccc(-c2cnc(O)c(C(=O)N/N=C/c3cc(C)cc(C)c3)n2)cc1 [Compound 15, (E)-N′-(3,5-dimethylbenzylidene)-3-hydroxy-6-(4-methoxyphenyl)pyrazine-2-carbohydrazide]	> 1	> 1
COc1ccc(-c2cnc(O)c(C(=O)N/N=C/c3cc(OC)cc(OC)c3)n2)cc1 [Compound 14, (E)-N′-(3,5-dimethoxybenzylidene)-3-hydroxy-6-(4-methoxyphenyl)pyrazine-2-carbohydrazide]	> 1	> 1
COc1cc(/C=N/NC(=O)c2cncc(-c3ccc(O)cc3)n2)cc(OC)c1 [Compound 1, (E)-N′-(3,5-dimethoxybenzylidene)-6-(4-hydroxyphenyl)pyrazine-2-carbohydrazide]	> 1	> 1
O=C(N/N=C/c1cncc(O)c1)c1cncc(-c2ccc(O)cc2)n1 [Compound 4, (E)-6-(4-hydroxyphenyl)-N′-((5-hydroxypyridine-3-yl)methylene)pyrazine-2-carbohydrazide]	> 1	> 1
COc1ccc(-c2nc(C(=O)N/N=C/c3cc(OC)cc(OC)c3)cnc2O)cc1 [Compound 12, (E)-N′-(3,5-dimethoxybenzylidene)-5-hydroxy-6-(4-methoxyphenyl)pyrazine-2-carbohydrazide]	> 1	> 1
CCOc1ccc(-c2cncc(C(=O)N/N=C/c3cc(OC)ccc3F)n2)c(O)c1 [Compound 8, (E)-6-(4-ethoxy-2-hydroxyphenyl)-N′-(2-fluoro-5-methoxybenzylidene)pyrazine-2-carbohydrazide]	0.5 to 1	> 1
CCOc1ccc(-c2cncc(C(=O)N/N=C/c3cc(OC)cnc3F)n2)c(O)c1 [Compound 9, (E)-6-(4-ethoxy-2-hydroxyphenyl)-N′-((2-fluoro-5-methoxypyridine-3-yl)methylene)pyrazine-2-carbohydrazide]	< 0.5	> 1

More lines, now with the values ahead:

IC50 [1] [µM]	IC50 [2] [µM]	Structure (SMILES)
> 1	> 1	COc1ccc(-c2cncc(C(=O)N/N=C/c3cc(O)cc(OC)c3)n2)cc1 [Compound 21, (E)-N′-(3-hydroxy-5-methoxybenzylidene)-6-(4-methoxyphenyl)pyrazine-2-carbohydrazide]
> 1	> 1	COc1ccc(-c2cncc(C(=O)N/N=C/c3ccccc3O)n2)cc1 [Compound 24, (E)-N′-(2-hydroxybenzylidene)-6-(4-methoxyphenyl)pyrazine-2-carbohydrazide]
> 1	> 1	CCOc1ccc(-c2cnc(O)c(C(=O)N/N=C/c3cccc(OC)c3)n2)c(F)c1 [Compound 19, (E)-6-(4-ethoxy-2-fluorophenyl)-3-hydroxy-N′-(3-methoxybenzylidene)pyrazine-2-carbohydrazide]
< 0.5	> 1	CCOc1ccc(-c2cncc(C(=O)N/N=C/c3cc(C)cc(O)c3)n2)cc1 [Compound 26, (E)-6-(4-ethoxyphenyl)-N′-(3-hydroxy-5-methylbenzylidene)pyrazine-2-carbohydrazide]
0.5 to 1	> 1	COc1ccc(-c2cncc(C(=O)N/N=C/c3cc(C)cc(O)c3)n2)cc1 [Compound 25, (E)-N′-(3-hydroxy-5-methylbenzylidene)-6-(4-methoxyphenyl)pyrazine-2-carbohydrazide]
0.5 to 1	> 1	CCOc1ccc(-c2cncc(C(=O)N/N=C/c3cc(O)ccc3F)n2)cc1 [Compound 27, (E)-6-(4-ethoxyphenyl)-N′-(2-fluoro-5-hydroxybenzylidene)pyrazine-2-carbohydrazide]
> 1	> 1	CCOc1ccc(-c2nc(C(=O)N/N=C/c3cccc(OC)c3)cnc2O)c(F)c1 [Compound 18, (E)-6-(4-ethoxy-2-fluorophenyl)-5-hydroxy-N′-(3-methoxybenzylidene)pyrazine-2-carbohydrazide]
> 1	> 1	CCOc1ccc(-c2cncc(C(=O)N/N=C/c3cncc(O)c3)n2)cc1 [Compound 29, (E)-6-(4-ethoxyphenyl)-N′-((5-hydroxypyridine-3-yl)methylene)pyrazine-2-carbohydrazide]
> 1	> 1	COc1ccc(-c2cncc(C(=O)N/N=C/c3cccc(O)c3)n2)cc1 [Compound 23, (E)-N′-(3-hydroxybenzylidene)-6-(4-methoxyphenyl)pyrazine-2-carbohydrazide]
< 0.5	> 1	CCOc1ccc(-c2cncc(C(=O)N/N=C/c3cc(OC)ccc3O)n2)cc1 [Compound 28, (E)-6-(4-ethoxyphenyl)-N′-(2-hydroxy-5-methoxybenzylidene)pyrazine-2-carbohydrazide]
> 1	> 1	COc1ccc(-c2cncc(C(=O)N/N=C/c3ccc(O)cc3)n2)cc1 [Compound 22, (E)-N′-(4-hydroxybenzylidene)-6-(4-methoxyphenyl)pyrazine-2-carbohydrazide]
> 1	> 1	COc1ccc(-c2cncc(C(=O)N/N=C/c3cc(O)cc(O)c3)n2)cc1 [Compound 20, (E)-N′-(3,5-dihydroxybenzylidene)-6-(4-methoxyphenyl)pyrazine-2-carbohydrazide]
